According to US10189875B2, “Anti-cancer peptide and use thereof” (ENSOL BIOSCIENCES INC., priority 2015, dated 2019):

Experiments:
[1] = test system: SNU-790 thyroid cancer cells; assay: Transwell invasion assay (TGF-beta1-induced invasion of cancer cells); assay type: cell-based; details: invasion increased by 10 ng/ml TGF-beta1; peptide at 40 and 100 [1M; 2 days culture; FIG. 1
Description: Whether the invasion of cancer cells was inhibited by the peptide of Example 1 was evaluated experimentally. Specifically, in order to evaluate the effect of the peptide of Example 1 on inhibiting the invasion of cancer cells, a Transwell invasion assay was performed. Growth factor reduced Matrigel (BD Biosciences, Franklin Lakes, N.J., USA) was diluted at 1:1 with a medium [RPMI 1640 medium (Welgene Inc., Korea)] and 70 fek thereof was added to the top chamber of the Transwell insert (Corning cat#3422, Tewksbury Mass., USA), followed by a coating process for 1 hr in a CO2 incubator at 37° C. 500 fek of a medium [RPMI 1640 medium (Welgene Inc., Korea)] containing 10% fetal bovine serum (FBS, Cellgro cat#35-015-CV, USA) was added to the bottom chamber, after which the test group was added with 10 ng/ml of TGF-betal (PromoKine, Germany). The coated top chamber was mounted to the bottom chamber, and 100 ick of RPMI 1640 medium containing 0.5% FBS with 20000 SNU-790 thyroid cancer cells (Korean Cell Line Bank) was added to the top chamber. In this way, a negative control group and two test groups were prepared. […]
The test groups, the control group, and the negative control group were cultured in a CO2 incubator for 2 days at 37° C. […] Four randomly selected regions were photographed and the number of cells in these regions was counted, averaged and graphed. […]

[2] = test system: 4T1 mouse breast cancer cells; assay: Lung metastasis model with 4T1 cells, count of metastatic tumor nodules; assay type: in vivo, female BALB/c mice; details: FIG. 2; for number of tumor nodules (lung): caudal vein, three times a week for three weeks, autopsy on 21st day, vs negative control
Description: Whether the metastasis of cancer cells was inhibited by the peptide of Example 1 was evaluated experimentally. Specifically, in order to evaluate the inhibitory effect of the peptide of Example 1 on the metastasis of cancer cells, testing was performed using a lung metastasis model with 4T1 mouse breast cancer cells (ATCC CRL-2539, USA). The peptide of Example 1 was injected into the caudal vein of the tail of female BALB/c mice (SPF, SLC/Japan). The test group was divided into three groups according to the administration concentration; low concentration [40/2 g/head], middle concentration [80/2 g/head], and high concentration 1120, ug/headl. The negative control group was treated in the same manner as the test group, with the exception that the peptide of Example 1 was not administered. On the day after first administration, 4T1 cells (1.5×10^4 cells/head) were injected into the mouse tail caudal vein. After 1 hr, the peptide of Example 1 was secondarily administered. The administration of the peptide was performed three times a week (Monday, Wednesday, and Friday) for a total of three weeks ranging from the second administration day to the final administration day. The weight of the mouse was measured two times a week, and an autopsy was performed on the 21st day after the injection of cancer cells. The lung tissue was excised, stained with a Bouin's solution, and fixed, and then the number of metastatic tumor nodules was counted. Also, a group (a normal group), treated in the same manner as the test group, was prepared as a control group, with the exception that neither the peptide of Example 1 nor 4T1 cells were added. The graph of FIG. 2 is plotted with an x-axis for each group and a y-axis for the number of tumor nodules. As such, n designates the number of individuals in each group, and P designates the significance probability.

[3] = test system: 4T1 mouse breast cancer cells; assay: Survival rate in the 4T1 lung metastasis model; assay type: in vivo, female BALB/c mice; details: FIG. 3
Description: Whether the metastasis of cancer cells was inhibited by the peptide of Example 1 was evaluated experimentally. Specifically, in order to evaluate the inhibitory effect of the peptide of Example 1 on the metastasis of cancer cells, testing was performed using a lung metastasis model with 4T1 mouse breast cancer cells (ATCC CRL-2539, USA). The peptide of Example 1 was injected into the caudal vein of the tail of female BALB/c mice (SPF, SLC/Japan). The test group was divided into three groups according to the administration concentration; low concentration [40/2 g/head], middle concentration [80/2 g/head], and high concentration 1120, ug/headl. The negative control group was treated in the same manner as the test group, with the exception that the peptide of Example 1 was not administered. […] The weight of the mouse was measured two times a week, and an autopsy was performed on the 21st day after the injection of cancer cells. The lung tissue was excised, stained with a Bouin's solution, and fixed, and then the number of metastatic tumor nodules was counted. […]
The anticancer effect of the peptide of Example 1 was evaluated experimentally. Specifically, in order to evaluate the effect of the peptide of Example 1 on surviving individuals suffering from cancer, the survival rate was measured using an animal model prepared in the same manner as in Example 3. […]

[4] = test system: B16-BL6 mouse melanoma cells; assay: Survival rate in animal model with B16-BL6 melanoma cells; assay type: in vivo, male C57BL/6J mice; details: FIG. 4
Description: The anticancer effect of the peptide of Example 1 was evaluated experimentally. Specifically, in order to evaluate the effect of the peptide of Example 1 on surviving individuals suffering from cancer, the survival rate was measured using an animal model with B16-BL6 mouse melanoma cells (Korean Cell Line Bank, Korea).
B16-BL6 cells {1×10^5 cells/head} were subcutaneously injected into 7-week-old male C57BL/6J mice (Orientbio Inc., Korea). After one week, the peptide of Example 1 was intraperitoneally administered. The test group was divided into three groups according to the administration concentration; low concentration {40, ttg/head}, middle concentration {80, ttg/head}, and high concentration {120, ttg/head}. The negative control group was treated in the same manner as the test group, with the exception that the peptide of Example 1 was not administered. The administration was repeated two times a week for two weeks from the first administration day and then once a week for an additional four weeks, and the peptide was administered a total of eight times. To measure the survival rate, the survival rate for each group was observed and recorded. In the graph of FIG. 4, showing the survival rate, the x-axis represents the number of days since injection of the cancer cells, and the y-axis represents the survival rate (%). […]

[5] = low, middle and high concentration groups compared

Substance: QLHLD [Example 1]
- invasion of cancer cells (number of invading cells) [1]: inhibited in a concentration-dependent manner
- number of tumor nodules (lung) ([2]; high concentration (120 ug/head)): significantly (P<0.001) reduced
- inhibitory effect of cancer metastasis, comparison among dose groups [2, 5]: highest in the test group in which the peptide was administered at the middle concentration
- number of tumor nodules (lung) ([2]; middle concentration [80/2 g/head]): significantly (P<0.001) reduced
- survival rate, comparison among dose groups [3, 5]: highest in the test group in which the peptide was administered at the middle concentration
- survival rate ([3]; middle and high concentrations, caudal vein, vs negative control): some individuals survived even after the death of the negative control group
- survival rate, comparison among dose groups [4, 5]: highest in the test group in which the peptide was administered at the middle concentration
- survival rate ([4]; test groups (low 40, middle 80, high 120 ttg/head), intraperitoneal, eight administrations, vs negative control): some individuals survived even after the death of the negative control group
